Reference: patent US20230047816A1 (priority 2018, published 2023)

target: Recombinant full length human PFKFB3 (Homo sapiens, UniProt Q16875); test: PFKFB3 kinase activity assay (ADP production, ADP-Glo)
Sequence (Q16875 whole entry): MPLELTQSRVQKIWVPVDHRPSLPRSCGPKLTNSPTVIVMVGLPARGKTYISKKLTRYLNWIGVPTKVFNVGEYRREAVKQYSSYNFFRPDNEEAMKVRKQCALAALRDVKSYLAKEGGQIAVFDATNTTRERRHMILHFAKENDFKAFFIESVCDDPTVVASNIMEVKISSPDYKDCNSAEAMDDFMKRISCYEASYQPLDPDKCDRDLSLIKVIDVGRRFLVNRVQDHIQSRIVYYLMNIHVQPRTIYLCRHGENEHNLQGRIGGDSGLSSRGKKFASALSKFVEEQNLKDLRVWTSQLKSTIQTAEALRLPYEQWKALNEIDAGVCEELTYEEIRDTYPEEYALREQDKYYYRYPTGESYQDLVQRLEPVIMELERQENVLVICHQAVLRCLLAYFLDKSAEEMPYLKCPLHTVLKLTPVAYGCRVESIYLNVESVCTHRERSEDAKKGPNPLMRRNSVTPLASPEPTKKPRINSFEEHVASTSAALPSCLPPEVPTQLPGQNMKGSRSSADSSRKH

Structure (SMILES)	IC50 [nM]
O=C(O)c1ccc2c(c1)C(=O)N(c1cc(-c3cccs3)ccc1C(=O)O)C2=O [Example 48, 2-(2-Carboxy-5-thiophen-2-yl-phenyl)-1,3-dioxo-2,3-dihydro-1H-isoindole-5-carboxylic Acid]	< 500
O=C(O)c1ccc(-c2ccccc2)cc1N1Cc2ccc(-c3c[nH]nn3)cc2C1=O [Compound 92, 3-[1-Oxo-6-(1H-[1,2,3]triazol-4-yl)-1,3-dihydroisoindol-2-yl]biphenyl-4-carboxylic Acid]	2000 to 5000
Nc1cc(C(=O)O)ccc1C(=O)Nc1cc(-c2ccccc2)ccc1C(=O)O [Example 4, 3-(2-amino-4-carboxybenzamido)-[1,1′-biphenyl]-4-carboxylic acid]	< 20000
COc1cc2c(cc1C(=O)O)C(=O)N(c1cc(-c3ccc(F)c(F)c3)ccc1C(=O)O)C2=O [compound 170, 2-(4-carboxy-3′,4′-difluoro[1,1′-biphenyl]-3-yl)-6-methoxy-1,3-dioxo-2,3-dihydro-1H-isoindole-5-carboxylic acid]	< 500
O=C(O)c1cc(C(=O)O)c(C(=O)Nc2cc(-c3ccc(F)c(F)c3)ccc2C(=O)O)cc1O [Example 16, 4-({4-carboxy-3′,4′-difluoro-[1,1′-biphenyl]-3-yl}carbamoyl)-6-hydroxybenzene-1,3-dicarboxylic acid]	< 20000
CS(=O)(=O)NC(=O)c1ccc2c(c1)C(=O)N(c1cc(-c3ccc(F)c(F)c3)ccc1C(=O)OCCN1CCCC1)C2 [Compound 109, 3′,4′-Difluoro-3-(6-methanesulfonylaminocarbonyl-1-oxo-1,3-dihydroisoindol-2-yl)biphenyl-4-carboxylic acid 2-pyrrolidin-1-yl-ethyl ester]	< 20000
COc1ccc(-c2nnn[nH]2)c(N2C(=O)c3ccc(C(=O)O)cc3C2=O)c1 [Example 47, 2-[5-Methoxy-2-(1H-tetrazol-5-yl)phenyl]-1,3-dioxo-2,3-dihydro-1H-isoindole-5-carboxylic acid]	500 to 2000
CN(C)CCOC(=O)c1ccc(-c2ccc(Cl)cc2Cl)cc1NC(=O)c1ccc(C(=O)N=S(C)(C)=O)cc1C(=O)O [Example 49, 2-[(2′,4′-dichloro-4-{[2-(dimethylamino)ethoxy]carbonyl}-[1,1′-biphenyl]-3-yl)carbamoyl]-5-{[dimethyl(oxo)-λ^6-sulfanylidene]carbamoyl}benzoic acid]	< 500
NC(=O)c1ccc(-c2ccccc2)cc1N1C(=O)c2ccc(-c3c[nH]nn3)cc2C1=O [Compound 93, 3-[1,3-Dioxo-5-(1H-[1,2,3]triazol-4-yl)-1,3-dihydroisoindol-2-yl]biphenyl-4-carboxylic acid amide]	5000 to 20000
COC(=O)c1cc(-c2c[nH]nn2)ccc1C(=O)Nc1sc(C)c(-c2ccc(OC)cc2)c1C#N [Example 9, methyl 2-{[3-cyano-4-(4-methoxyphenyl)-5-methylthiophen-2-yl]carbamoyl}-5-(2H-1,2,3-triazol-4-yl)benzoate]	5000 to 20000
O=C(O)c1ccc2c(c1)C(=O)N(c1cc(-c3ccc(Cl)cc3Cl)ccc1C(=O)O)C2=O [Compound 142, 2-(4-Carboxy-2′,4′-dichloro[1,1′-biphenyl]-3-yl)-1,3-dioxo-2,3-dihydro-1H-isoindole-5-carboxylic acid]	< 500
O=C1c2ccc(-c3c[nH]nn3)cc2C(=O)N1c1ccc(-c2ccccc2)nc1O [Compound 89, 2-(2-Hydroxy-6-phenylpyridin-3-yl)-5-(1H-[1,2,3]triazol-4-yl)-isoindole-1,3-dione]	< 20000
O=C(O)c1cc(-c2cn[nH]c2)ccc1N1C(=O)c2ccc(-c3c[nH]nn3)cc2C1=O [Compound 71, 2-[1,3-Dioxo-5-(1H-[1,2,3]triazol-4-yl)-1,3-dihydroisoindol-2-yl]-5-(1H-pyrazol-4-yl)-benzoic Acid]	500 to 2000
O=C(Nc1cc(Cl)c(-c2c[nH]nn2)cc1C(=O)O)c1cccc(-c2ccccc2)c1 [Example 18, 2-([1,1′-biphenyl]-3-carboxamido)-4-chloro-5-(1H-1,2,3-triazol-5-yl)benzoic acid]	5000 to 20000
COc1ccc(-c2c(C)sc(N3C(=O)c4ccc(C(=O)N[C@@H](CO)C(=O)O)cc4C3=O)c2C#N)cc1 [Example 16]	2000 to 5000
O=C(OCCN1CCOCC1)c1cc(-c2ccccc2)ccc1N1C(=O)c2ccc(-c3c[nH]nn3)cc2C1=O [Compound 80, 4-[1,3-Dioxo-5-(1H-[1,2,3]triazol-4-yl)-1,3-dihydroisoindol-2-yl]biphenyl-3-carboxylic acid 2-morpholin-4-yl-ethyl ester]	< 20000

Next, values leading:

IC50 [nM]	Structure (SMILES)
2000 to 5000	Nc1ccc(-c2ccc(N3C(=O)c4ccc(-c5c[nH]nn5)cc4C3=O)c(C(=O)O)c2)cn1 [Example 65]
< 20000	COC(=O)c1ccc2c(c1)C(=O)N(c1cc(-c3ccc(F)c(F)c3)ccc1C(=O)OC)C2 [Compound 127, 2-(3′,4′-Difluoro-4-methoxycarbonylbiphenyl-3-yl)-3-oxo-2,3-dihydro-1H-isoindole-5-carboxylic acid methyl ester]
< 500	Cn1cncc1-c1ccc(N2C(=O)c3ccc(C(=O)O)cc3C2=O)c(C(=O)O)c1 [Compound 76, 2-[2-Carboxy-4-(3-methyl-3H-imidazol-4-yl)-phenyl]-1,3-dioxo-2,3-dihydro-1H-isoindole-5-carboxylic Acid]
500 to 2000	O=C(O)c1ccc(NC(=O)c2cccc(-c3ccccc3)c2)c(C(=O)O)c1 [Example 17, 4-{[1,1′-biphenyl]-3-amido}benzene-1,3-dicarboxylic acid]
< 500	O=C(O)c1cc(-c2cnn[nH]2)c(Cl)cc1NC(=O)c1cc(-c2ccc(F)c(F)c2)ccc1C(=O)O [Example 19, 3-((2-carboxy-5-chloro-4-(1H-1,2,3-triazol-5-yl)phenyl)carbamoyl)-3′,4′-difluoro-[1,1′-biphenyl]-4-carboxylic acid]
< 500	COc1ccc(-c2c(C)sc(NC(=O)c3ccc(C(=O)O)cc3C(=O)O)c2C#N)cc1 [Example 30, 4-{[3-cyano-4-(4-methoxyphenyl)-5-methylthiophen-2-yl]carbamoyl}benzene-1,3-dicarboxylic acid]
< 500	O=C(O)c1ccc(-c2ccccc2)cc1N1C(=O)c2ccc(-c3c[nH]nn3)cc2C1=O [Example 59]
< 20000	COC(=O)c1cc(-c2ccccc2)ccc1N1C(=O)c2ccc(C(=O)NS(C)(=O)=O)cc2C1=O [Example 40]
2000 to 5000	CN(C)C(=O)c1[nH]nnc1-c1ccc2c(c1)C(=O)N(c1cc(-c3ccc(F)c(F)c3)ccc1C(=O)O)C2 [compound 165, 3-(6-(5-(dimethylcarbamoyl)-1H-1,2,3-triazol-4-yl)-1-oxoisoindolin-2-yl)-3′,4′-difluorobiphenyl-4-carboxylic acid]
< 500	O=C(O)c1cc(C(=O)O)c(C(=O)Nc2cc(-c3ccc(F)c(F)c3)ccc2C(=O)O)cc1Cl [Example 45, 4-({4-carboxy-3′,4′-difluoro-[1,1′-biphenyl]-3-yl}carbamoyl)-6-chlorobenzene-1,3-dicarboxylic acid]
500 to 2000	NC(=O)c1ccc2c(c1)C(=O)N(c1cc(-c3ccccc3)ccc1C(=O)O)C2=O [Example 28]
< 500	CC(CN(C)C)OC(=O)c1ccc(-c2ccc(Cl)cc2Cl)cc1NC(=O)c1cc(O)c(C(=O)O)cc1C(=O)O (centres unmarked) [Example 65, 4-{[2′,4′-dichloro-4-({[1-(dimethylamino)propan-2-yl]oxy}carbonyl)-[1,1′-biphenyl]-3-yl]carbamoyl}-6-hydroxybenzene-1,3-dicarboxylic acid]
2000 to 5000	COC(=O)c1ccc(-c2ccccc2)cc1N1C(=O)c2ccc(-c3nnn[nH]3)cc2C1=O [Example 44]
< 500	O=C(O)c1ccc2c(c1)C(=O)N(c1cc(-c3cccnc3)ccc1C(=O)O)C2=O [Example 52]
< 500	CS(C)(=O)=NC(=O)c1ccc(C(=O)Nc2cc(-c3ccc(F)c(F)c3)ccc2C(=O)O)c(C(=O)O)c1 [Example 41, 3-(2-carboxy-4-{[methyl(methylidene)oxo-λ^6-sulfanyl]carbamoyl}benzamido)-3′,4′-difluoro-[1,1′-biphenyl]-4-carboxylic acid]
< 20000	O=C1c2ccc(-c3c[nH]nn3)cc2C(=O)N1c1cc(-c2ccc(F)cc2)c(-c2ccccc2)cn1 [compound 146, 2-(4-(4-fluorophenyl)-5-phenylpyridin-2-yl)-5-(1H-1,2,3-triazol-4-yl)isoindoline-1,3-dione]
< 20000	COC(=O)c1ccc(-c2ccccc2)cc1N1Cc2ccc(C(=O)NS(C)(=O)=O)cc2C1=O [Compound 103, 3-(6-Methanesulfonylaminocarbonyl-1-oxo-1,3-dihydroisoindol-2-yl)biphenyl-4-carboxylic acid methyl ester]
< 500	O=C(O)c1ccc(-c2ccc(F)c(F)c2)cc1N1Cc2ccc(-c3c[nH]nn3)cc2C1=O [Compound 111, 3′,4′-Difluoro-3-[1-oxo-6-(1H-[1,2,3]triazol-4-yl)-1,3-dihydroisoindol-2-yl]biphenyl-4-carboxylic Acid]
< 20000	CC(C)OC(=O)c1ccc(-c2ccc(F)c(F)c2)cc1N1Cc2ccc(C(=O)NS(C)(=O)=O)cc2C1=O [Compound 125, 3′,4′-Difluoro-3-(6-methanesulfonylaminocarbonyl-1-oxo-1,3-dihydro-isoindol-2-yl)-biphenyl-4-carboxylic acid isopropyl ester]
< 20000	CS(=O)(=O)NC(=O)c1ccc2c(c1)C(=O)N(c1cc(-c3ccc(F)c(F)c3)ccc1C(N)=O)C2 [Compound 107, 3′,4′-Difluoro-3-(6-methanesulfonylaminocarbonyl-1-oxo-1,3-dihydroisoindol-2-yl)biphenyl-4-carboxylic acid amide]
5000 to 20000	O=C(OCC(O)CO)c1ccc(-c2ccccc2)cc1N1C(=O)c2ccc(-c3c[nH]nn3)cc2C1=O (centres unmarked) [Compound 70, 3-[1,3-Dioxo-5-(1H-[1,2,3]triazol-4-yl)-1,3-dihydroisoindol-2-yl]biphenyl-4-carboxylic acid 2,3-dihydroxy-propyl ester]
< 500	N#Cc1c(NC(=O)c2ccc(C(=O)O)cc2C(N)=O)sc(-c2ccccc2)c1-c1ccccc1 [Example 11, 3-carbamoyl-4-[(3-cyano-4,5-diphenylthiophen-2-yl)carbamoyl]benzoic acid]
